Biological target: T1, chicken gizzard smooth muscle myosin subfragment-1 chemically crosslinked to cardiac or skeletal actin (Gallus gallus, UniProt P10587)
T1 construct: chicken gizzard smooth muscle myosin subfragment-1; from tissue; host or cells: chicken gizzard
Test: Smooth muscle myosin ATPase dose response assay (pyruvate kinase/horseradish peroxidase/pyruvate oxidase-coupled, amplex red fluorescence)
Format: biochemical
Details: read-out: IC50 Arithmetic Mean
Method in brief: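 Chicken gizzard myosin S1 crosslinked to cardiac or skeletal actin, titrated to a set hydrolysis rate; 0.15 mM ATP, 12 mM PIPES pH 7.00, 100 mM KCl, 2 mM MgCl2. Pyruvate kinase/pyruvate oxidase/HRP coupling with amplex red fluorescence; IC50 from 4-parameter fit.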

T1 sequence (P02607 2-151): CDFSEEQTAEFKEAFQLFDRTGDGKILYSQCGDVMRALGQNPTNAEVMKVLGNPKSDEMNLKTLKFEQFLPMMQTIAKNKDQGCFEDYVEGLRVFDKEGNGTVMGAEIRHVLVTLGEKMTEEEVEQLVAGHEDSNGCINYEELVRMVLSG
T1 sequence (P10587 84-789): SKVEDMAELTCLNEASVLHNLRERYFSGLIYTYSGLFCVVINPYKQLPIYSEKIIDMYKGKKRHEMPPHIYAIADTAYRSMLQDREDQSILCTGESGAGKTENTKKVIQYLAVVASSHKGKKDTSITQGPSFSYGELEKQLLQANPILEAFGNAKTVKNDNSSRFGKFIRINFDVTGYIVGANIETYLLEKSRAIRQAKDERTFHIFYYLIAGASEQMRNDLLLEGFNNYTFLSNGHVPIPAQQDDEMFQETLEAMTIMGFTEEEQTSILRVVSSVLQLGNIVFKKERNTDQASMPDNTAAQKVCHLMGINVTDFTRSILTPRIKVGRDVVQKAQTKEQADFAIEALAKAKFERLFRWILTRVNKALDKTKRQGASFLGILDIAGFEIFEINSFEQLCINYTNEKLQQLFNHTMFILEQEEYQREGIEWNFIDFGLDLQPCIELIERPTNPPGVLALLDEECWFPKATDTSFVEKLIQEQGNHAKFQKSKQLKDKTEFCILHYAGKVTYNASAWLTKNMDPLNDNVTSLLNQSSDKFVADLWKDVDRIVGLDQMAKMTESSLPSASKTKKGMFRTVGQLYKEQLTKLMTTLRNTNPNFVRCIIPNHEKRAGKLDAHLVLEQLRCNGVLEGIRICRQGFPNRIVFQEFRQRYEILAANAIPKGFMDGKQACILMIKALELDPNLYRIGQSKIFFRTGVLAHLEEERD

Row | SMILES | IC50 [nM]
1 | C[C@@H](N)CNC(=O)c1cc(F)c(-c2cnn(C)c2)nc1NCCc1cccc(F)c1 [N-((2R)-2-aminopropyl)(5-fluoro-2-{[2-(3-fluorophenyl)ethyl]amino}-6-(1-methylpyrazol-4-yl)(3-pyridyl))carboxamide] | 398
2 | CCS(=O)(=O)N1CCNC[C@@H]1CNC(=O)c1ccc(-c2ccccc2C#N)nc1NCCc1cccc(F)c1 [N-{[(2R)-1-(ethylsulfonyl)piperazin-2-yl]methyl}(6-(2-cyanophenyl)-2-{[2-(3-fluorophenyl)ethyl]amino}(3-pyridyl))carboxamide] | 16800
3 | C[C@H](CNC(=O)c1ccc(-c2ccccc2C#N)nc1NCCc1cccc(F)c1)N(C)C(=O)CNC(=O)OC(C)(C)C | 5920
4 | C[C@H](CNC(=O)c1ccc(-c2ccccc2C#N)nc1NCCc1cccc(F)c1)NC(=O)CN | 41
5 | Cc1cc(-c2ccccc2C#N)nc(NCCc2cccc(F)c2)c1C(=O)NCc1cccnc1 [(6-(2-cyanophenyl)-2-{[2-(3-fluorophenyl)ethyl]amino}-4-methyl(3-pyridyl))-N-(3-pyridylmethyl)carboxamide] | 1080
6 | N#Cc1ccccc1-c1ccc(C(=O)NCC(CO)CO)c(NCCc2cccc(F)c2)n1 [(6-(2-cyanophenyl)-2-{[2-(3-fluorophenyl)ethyl]amino}(3-pyridyl))-N-[3-hydroxy-2-(hydroxymethyl)propyl]carboxamide] | 209
7 | Cn1cc(-c2nc(NCCc3cccc(F)c3)c(C(=O)NC[C@H]3CCCN3)cc2Cl)cn1 [N-[((2R)pyrrolidin-2-yl)methyl](5-chloro-2-{[2-(3-fluorophenyl)ethyl]amino}-6-(1-methylpyrazol-4-yl)(3-pyridyl))carboxamide] | 167
8 | CC(C)(C)OC(=O)NCCC(=O)N1CCC[C@H](CNC(=O)c2ccc(-c3ccccc3C#N)nc2NCCc2cccc(F)c2)C1 [N-[((3R)-1-{3-[(tert-butoxy)carbonylamino]propanoyl}(3-piperidyl))methyl](6-(2-cyanophenyl)-2-{[2-(3-fluorophenyl)ethyl]amino}(3-pyridyl))carboxamide] | 3790
9 | Cn1nccc1CNC(=O)c1ccc(-c2ccccc2C#N)nc1NCCc1cccc(F)c1 [(6-(2-cyanophenyl)-2-{[2-(3-fluorophenyl)ethyl]amino}(3-pyridyl))-N-[(1-methylpyrazol-5-yl)methyl]carboxamide] | 31
10 | CC(C)(C)OC(=O)NCCn1nccc1CNC(=O)c1ccc(-c2ccccc2C#N)nc1NCCc1cccc(F)c1 [N-[(1-{2-[(tert-butoxy)carbonylamino]ethyl}pyrazol-5-yl)methyl](6-(2-cyanophenyl)-2-{[2-(3-fluorophenyl)ethyl]amino}(3-pyridyl))carboxamide] | 2200
11 | Cc1cc(C(=O)NC[C@H]2CCCN2C(=O)OC(C)(C)C)c(NCCc2cccc(F)c2)nc1-c1cnn(C)c1 [tert-butyl (2R)-2-{[(2-{[2-(3-fluorophenyl)ethyl]amino}-5-methyl-6-(1-methylpyrazol-4-yl)(3-pyridyl))carbonylamino]methyl}pyrrolidinecarboxylate] | 3700
12 | O=C(NCc1cccnc1)c1ccc(-c2ccccc2)nc1NCCc1ccc(F)c(F)c1 [(2-{[2-(3,4-difluorophenyl)ethyl]amino}-6-phenyl(3-pyridyl))-N-(3-pyridylmethyl)carboxamide] | 521
13 | Cn1cc(-c2nc(NCCc3cccc(F)c3)c(C(=O)NC[C@H]3CCC(=O)N3CCCNC(=O)OC(C)(C)C)cc2Cl)cn1 [N-[((2R)-1-{3-[(tert-butoxy)carbonylamino]propyl}-5-oxopyrrolidin-2-yl)methyl](5-chloro-2-{[2-(3-fluorophenyl)ethyl]amino}-6-(1-methylpyrazol-4-yl)(3-pyridyl))carboxamide] | 443
14 | N#Cc1ccccc1-c1ccc(C(=O)NCc2ccc(F)cc2)c(NCCc2cccc(F)c2)n1 [(6-(2-cyanophenyl)-2-{[2-(3-fluorophenyl)ethyl]amino}(3-pyridyl))-N-[(4-fluorophenyl)methyl]carboxamide] | 2110
15 | N#Cc1ccccc1-c1ccc(C(=O)NCCc2cnccn2)c(NCCc2cccc(F)c2)n1 [(6-(2-cyanophenyl)-2-{[2-(3-fluorophenyl)ethyl]amino}(3-pyridyl))-N-(2-pyrazin-2-ylethyl)carboxamide] | 266
16 | N#Cc1ccccc1-c1ccc(C(=O)NCc2ccn(CCN)n2)c(NCCc2cccc(F)c2)n1 [N-{[1-(2-aminoethyl)pyrazol-3-yl]methyl}(6-(2-cyanophenyl)-2-{[2-(3-fluorophenyl)ethyl]amino}(3-pyridyl))carboxamide] | 296
17 | CC(C)(C)OC(=O)NCC(=O)N1CC[C@@H]1CNC(=O)c1ccc(-c2cn[nH]c2)nc1NCCc1cccc(F)c1 [N-[((2R)-1-{2-[(tert-butoxy)carbonylamino]acetyl}azetidin-2-yl)methyl](2-{[2-(3-fluorophenyl)ethyl]amino}-6-pyrazol-4-yl(3-pyridyl))carboxamide] | 2990
18 | O=C(Nc1cccnc1)c1ccc(-c2ccccc2)nc1NCCc1ccccn1 [{6-phenyl-2-[(2-(2-pyridyl)ethyl)amino](3-pyridyl)}-N-(3-pyridyl)carboxamide] | 5370
19 | NCCC(=O)N1CCC[C@@H]1CNC(=O)c1cc(F)c(-c2cn[nH]c2)nc1NCCc1cccc(F)c1 [N-{[(2R)-1-(3-aminopropanoyl)pyrrolidin-2-yl]methyl}(5-fluoro-2-{[2-(3-fluorophenyl)ethyl]amino}-6-pyrazol-4-yl(3-pyridyl))carboxamide] | 90
20 | CN(C)CCNC(=O)c1ccc(-c2ccccc2C#N)nc1NCCc1cccc(F)c1 [N-[2-(dimethylamino)ethyl](6-(2-cyanophenyl)-2-{[2-(3-fluorophenyl)ethyl]amino}(3-pyridyl))carboxamide] | 4220
21 | NCc1cccc(CNC(=O)c2ccc(-c3cn[nH]c3)nc2NCCc2cccc(F)c2)n1 [N-{[6-(aminomethyl)(2-pyridyl)]methyl}(2-{[2-(3-fluorophenyl)ethyl]amino}-6-pyrazol-4-yl(3-pyridyl))carboxamide] | 121
22 | Cc1cc(C(=O)NCc2cccnc2CN)c(NCCc2cccc(F)c2)nc1-c1cnn(C)c1 [N-{[2-(aminomethyl)(3-pyridyl)]methyl}(2-{[2-(3-fluorophenyl)ethyl]amino}-5-methyl-6-(1-methylpyrazol-4-yl)(3-pyridyl))carboxamide] | 129
23 | N#Cc1ccccc1-c1nc(NCCc2cccc(F)c2)c(C(=O)NCc2cccnc2)cc1Cl [(5-chloro-6-(2-cyanophenyl)-2-{[2-(3-fluorophenyl)ethyl]amino}(3-pyridyl))-N-(3-pyridylmethyl)carboxamide] | 512
24 | CC(C)(C)OC(=O)NCCC(=O)N1CCCC[C@H]1CNC(=O)c1ccc(-c2ccccc2C#N)nc1NCCc1cccc(F)c1 [N-[((2S)-1-{3-[(tert-butoxy)carbonylamino]propanoyl}(2-piperidyl))methyl](6-(2-cyanophenyl)-2-{[2-(3-fluorophenyl)ethyl]amino}(3-pyridyl))carboxamide] | 8640
25 | N#Cc1ccccc1-c1ccc(C(=O)NCC(=O)NCCC(N)=O)c(NCCc2cccc(F)c2)n1 [N-(2-carbamoylethyl)-2-[(6-(2-cyanophenyl)-2-{[2-(3-fluorophenyl)ethyl]amino}(3-pyridyl))carbonylamino]acetamide] | 12200
26 | NC(=O)CNC(=O)c1ccc(-c2ccccc2)nc1NCCc1ccccc1 [N-(carbamoylmethyl){6-phenyl-2-[(2-phenylethyl)amino](3-pyridyl)}carboxamide] | 810

— patent US7932270B2 (Cytokinetics, Inc., priority 2006, dated 2011)
